# Results as given in PubChem BioAssay (NCI).
#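 1) Cells in 96-well plates. 2) Compound, 48 h, 5 concentrations. 3) Linear interpolation between surrounding doses. 4) Unreached endpoint = highest concentration. Here, GI50 denotes the concentration required for 50% inhibition of growth. TGI: concentration producing complete growth inhibition.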
# Assays:
# Assay in all cases: inhibition of tumour cell growth, NCI panel, 48 h
# TK-10 renal = tested on: TK-10 renal
# A498 renal = tested on: A498 renal
# LOX IMVI melanoma = tested on: LOX IMVI melanoma
# SK-MEL-2 melanoma = tested on: SK-MEL-2 melanoma
# NCI-H522 lung = tested on: NCI-H522 lung
# HCT-116 colon = tested on: HCT-116 colon
# 786-0 renal = tested on: 786-0 renal
# UACC-257 melanoma = tested on: UACC-257 melanoma
# ACHN renal = tested on: ACHN renal
# EKVX NSCLC = tested on: EKVX NSCLC
# MOLT-4 leukemia = tested on: MOLT-4 leukemia
# MDA-MB-468 breast = tested on: MDA-MB-468 breast
# RXF 393 renal = tested on: RXF 393 renal
# M14 melanoma = tested on: M14 melanoma
# K-562 leukemia = tested on: K-562 leukemia
# SK-OV-3 ovarian = tested on: SK-OV-3 ovarian
# HT29 colon = tested on: HT29 colon
# SR leukemia = tested on: SR leukemia
# IGROV1 ovarian = tested on: IGROV1 ovarian
# CAKI-1 renal = tested on: CAKI-1 renal
# BT-549 breast = tested on: BT-549 breast
# SN12C renal = tested on: SN12C renal
# KM12 colon = tested on: KM12 colon
# COLO 205 colon = tested on: COLO 205 colon
# OVCAR-4 ovarian = tested on: OVCAR-4 ovarian
# OVCAR-8 ovarian = tested on: OVCAR-8 ovarian
# SW-620 colon = tested on: SW-620 colon
# HOP-92 NSCLC = tested on: HOP-92 NSCLC
# U251 CNS = tested on: U251 CNS
# HOP-62 NSCLC = tested on: HOP-62 NSCLC
# HS 578T breast = tested on: HS 578T breast
# T-47D breast = tested on: T-47D breast
# SK-MEL-5 melanoma = tested on: SK-MEL-5 melanoma
# NCI-H23 lung = tested on: NCI-H23 lung
# SNB-75 CNS = tested on: SNB-75 CNS
# A549 NSCLC = tested on: A549 NSCLC
# SF-539 CNS = tested on: SF-539 CNS
# SK-MEL-28 melanoma = tested on: SK-MEL-28 melanoma
# HCC-2998 colon = tested on: HCC-2998 colon
# SF-268 CNS = tested on: SF-268 CNS
# NCI-H460 lung = tested on: NCI-H460 lung
# MALME-3M melanoma = tested on: MALME-3M melanoma
# SNB-19 CNS = tested on: SNB-19 CNS
# DU-145 prostate = tested on: DU-145 prostate
# HCT-15 colon = tested on: HCT-15 colon
# PC-3 prostate = tested on: PC-3 prostate
# RPMI-8226 leukemia = tested on: RPMI-8226 leukemia
# NCI-H226 lung = tested on: NCI-H226 lung
# UO-31 renal = tested on: UO-31 renal
# OVCAR-3 ovarian = tested on: OVCAR-3 ovarian
# OVCAR-5 ovarian = tested on: OVCAR-5 ovarian
# SF-295 CNS = tested on: SF-295 CNS
# MCF7 breast = tested on: MCF7 breast
# HL-60(TB) leukemia = tested on: HL-60(TB) leukemia
# CCRF-CEM leukemia = tested on: CCRF-CEM leukemia
# UACC-62 melanoma = tested on: UACC-62 melanoma
# MDA-MB-435 = tested on: MDA-MB-435
# MDA-MB-231 breast = tested on: MDA-MB-231 breast
compound,measurement,setting,value
O=C(c1ccc(O)cc1)C1[C@H](c2ccc(Br)cc2)[C@@H](c2ccccc2)NC12C(=O)Nc1ccc(Br)cc12 (stereo partly specified),GI50,TK-10 renal,4.44 µM
same,TGI,TK-10 renal,8.86 µM
same,GI50,A498 renal,4.24 µM
same,TGI,A498 renal,8.7 µM
same,GI50,LOX IMVI melanoma,4.36 µM
same,TGI,LOX IMVI melanoma,9.1 µM
same,GI50,SK-MEL-2 melanoma,4.95 µM
same,TGI,SK-MEL-2 melanoma,9.48 µM
same,GI50,NCI-H522 lung,4.45 µM
same,TGI,NCI-H522 lung,9.15 µM
same,GI50,HCT-116 colon,4.16 µM
same,TGI,HCT-116 colon,8.63 µM
same,GI50,786-0 renal,5.22 µM
same,TGI,786-0 renal,9.86 µM
same,GI50,UACC-257 melanoma,4.93 µM
same,TGI,UACC-257 melanoma,9.52 µM
same,GI50,ACHN renal,4.03 µM
same,TGI,ACHN renal,8.21 µM
same,GI50,EKVX NSCLC,4.19 µM
same,TGI,EKVX NSCLC,9.07 µM
same,GI50,MOLT-4 leukemia,3.39 µM
same,TGI,MOLT-4 leukemia,9.62 µM
same,GI50,MDA-MB-468 breast,4.58 µM
same,TGI,MDA-MB-468 breast,9.97 µM
same,GI50,RXF 393 renal,3.54 µM
same,TGI,RXF 393 renal,8.33 µM
same,GI50,M14 melanoma,4.52 µM
same,TGI,M14 melanoma,9.24 µM
same,GI50,K-562 leukemia,4.72 µM
same,TGI,K-562 leukemia,11.8 µM
same,GI50,SK-OV-3 ovarian,4.51 µM
same,TGI,SK-OV-3 ovarian,9.21 µM
same,GI50,HT29 colon,4.48 µM
same,TGI,HT29 colon,9.48 µM
same,GI50,SR leukemia,3.79 µM
same,TGI,SR leukemia,9.3 µM
same,GI50,IGROV1 ovarian,3.88 µM
same,TGI,IGROV1 ovarian,8.19 µM
same,GI50,CAKI-1 renal,2280 nM
same,TGI,CAKI-1 renal,7.08 µM
same,GI50,BT-549 breast,5.54 µM
same,TGI,BT-549 breast,10.4 µM
same,GI50,SN12C renal,4.53 µM
same,TGI,SN12C renal,8.99 µM
same,GI50,KM12 colon,4.5 µM
same,TGI,KM12 colon,10.1 µM
same,GI50,COLO 205 colon,4.57 µM
same,TGI,COLO 205 colon,9.99 µM
same,GI50,OVCAR-4 ovarian,4.82 µM
same,TGI,OVCAR-4 ovarian,9.63 µM
same,GI50,OVCAR-8 ovarian,5.06 µM
same,TGI,OVCAR-8 ovarian,9.8 µM
same,GI50,SW-620 colon,5.08 µM
same,TGI,SW-620 colon,10.2 µM
same,GI50,HOP-92 NSCLC,4.39 µM
same,TGI,HOP-92 NSCLC,9.26 µM
same,GI50,U251 CNS,4.96 µM
same,TGI,U251 CNS,9.62 µM
same,GI50,HOP-62 NSCLC,4.81 µM
same,TGI,HOP-62 NSCLC,9.7 µM
same,GI50,HS 578T breast,4.95 µM
same,TGI,HS 578T breast,12.9 µM
same,GI50,T-47D breast,3.93 µM
same,TGI,T-47D breast,8.58 µM
same,GI50,SK-MEL-5 melanoma,5.63 µM
same,TGI,SK-MEL-5 melanoma,10.4 µM
same,GI50,NCI-H23 lung,4.9 µM
same,TGI,NCI-H23 lung,9.81 µM
same,GI50,SNB-75 CNS,2120 nM
same,TGI,SNB-75 CNS,7.06 µM
same,GI50,A549 NSCLC,3.59 µM
same,TGI,A549 NSCLC,8.38 µM
same,GI50,SF-539 CNS,5.34 µM
same,TGI,SF-539 CNS,10 µM
same,GI50,SK-MEL-28 melanoma,5.3 µM
same,TGI,SK-MEL-28 melanoma,9.96 µM
same,GI50,HCC-2998 colon,4.19 µM
same,TGI,HCC-2998 colon,8.86 µM
same,GI50,SF-268 CNS,4.56 µM
same,TGI,SF-268 CNS,10.2 µM
same,GI50,NCI-H460 lung,4.29 µM
same,TGI,NCI-H460 lung,8.92 µM
same,GI50,MALME-3M melanoma,4.96 µM
same,TGI,MALME-3M melanoma,9.61 µM
same,GI50,SNB-19 CNS,5.11 µM
same,TGI,SNB-19 CNS,9.75 µM
same,GI50,DU-145 prostate,5.23 µM
same,TGI,DU-145 prostate,10 µM
same,GI50,HCT-15 colon,4.16 µM
same,TGI,HCT-15 colon,9.35 µM
same,GI50,PC-3 prostate,4.14 µM
same,TGI,PC-3 prostate,9.22 µM
same,GI50,RPMI-8226 leukemia,5.97 µM
same,TGI,RPMI-8226 leukemia,19 µM
same,GI50,NCI-H226 lung,4.39 µM
same,TGI,NCI-H226 lung,9.76 µM
same,GI50,UO-31 renal,2660 nM
same,TGI,UO-31 renal,7.08 µM
same,GI50,OVCAR-3 ovarian,5.21 µM
same,TGI,OVCAR-3 ovarian,10.1 µM
same,GI50,OVCAR-5 ovarian,4.83 µM
same,TGI,OVCAR-5 ovarian,9.34 µM
same,GI50,SF-295 CNS,4.23 µM
same,TGI,SF-295 CNS,8.81 µM
same,GI50,MCF7 breast,3.89 µM
same,TGI,MCF7 breast,9.13 µM
same,GI50,HL-60(TB) leukemia,7.39 µM
same,TGI,HL-60(TB) leukemia,16.7 µM
same,GI50,CCRF-CEM leukemia,5.09 µM
same,TGI,CCRF-CEM leukemia,11.6 µM
same,GI50,UACC-62 melanoma,4.22 µM
same,TGI,UACC-62 melanoma,8.54 µM
same,GI50,MDA-MB-435,5.81 µM
same,TGI,MDA-MB-435,11.1 µM
same,GI50,MDA-MB-231 breast,4.25 µM
same,TGI,MDA-MB-231 breast,8.61 µM
